This is an account of results in ChEMBL document CHEMBL1151344, “Potential anticancer agents. XVI. Isolation of bicyclofarnesane sesquiterpenoids from Capsicodendron dinisii” (1980).

Values after ≈ are worked out from the molar mass of the structure shown. Active and inactive are the calls of the source. The calls are words filed in the database; no cut-off is given here.

Assay [1] concerns P388. Kind of assay: In vivo cytotoxicity against mouse P388 cells. Type of assay: functional, organism-based.
Assay [2] deals with P388. Kind of assay: Cytotoxicity against mouse P388 cells. The assay is classed as functional.
For another assay, the system named is 9KB. Nature of the assay: Cytotoxicity against human 9KB cells. Type of assay: functional, cell-based.
Assay [3] is described as follows: Cytotoxicity against human 9KB5 cells. Type of assay: functional. Particulars: read-out: ED50 (the source's name).

For `CC(=O)O[C@@H]1[C@@H](O)C2=C(C(=O)OC2)[C@@]2(C)CCCC(C)(C)[C@H]12`, the result with P388 [1], with P388 [2] and in the assay with 9KB was inactive.

In the case of `CC1(C)CCC[C@]2(C)C3=C(COC3=O)[C@H](O)C[C@@H]12`, the result in the assay with P388 [1], in the assay with P388 [2] and with 9KB was inactive.

As for `CC(=O)O[C@@H]1C=C(C=O)[C@](O)(C=O)[C@@]2(C)CCCC(C)(C)[C@H]12` [CINNAMODIAL], the result in the assay on P388 [1] was inactive. For the same compound, the EC50 in the assay on P388 [2] (read-out: ED50 (the source's name)) was determined as 2.2 mg/L (≈ 7.13 µM).

Take `CC(=O)O[C@@H]1CC2=C(C(=O)OC2)[C@@]2(C)CCCC(C)(C)[C@H]12`: the result in the assay on P388 [1], with P388 [2] and in the assay on 9KB was inactive.

Take `CC(=O)O[C@@H]1C=C2C(=O)OC[C@]2(O)[C@@]2(C)CCCC(C)(C)[C@H]12` [CINNAMOSMOLIDE]: the outcome with P388 [1] and in the assay with P388 [2] was inactive. Also, in assay [3], the EC50 was 1.2 mg/L (≈ 3.89 µM).
